Where a name gives a salt, the structure may show the parent alone. Read-outs that look alike come from different tables or passages of the source.
What was measured:
LD50 test, intravenous = assay: LD50 test, intravenous; set-up: species or system mice; details: mouse, in vivo, single injection, read-out: LD50 with 95% confidence limits
Procedure: (§1) Two tests were carried out on male rats, namely a determination of the "maximum tolerable dose" (MTD) and a test using multiple peroral doses. In addition, a LD50 test was carried out intravenously on mice.
(According to Litchfield and Wileoxon, J. Pharmacol. Exp. Therap. 96, 99-113, 1949).
The intravenous LD50 -value was determined after one single injection of different doses of the compound prepared in Example 4.

PAI-1 = assay: Inhibition of plasminogen activator inhibitor (PAI-1) from blood platelets (fibrinolytic activity); assay type: cell-based, human; details: 50 μM, 60 minutes; for % Inhibition of PAI-1 activity: compared to control; for PAI-1 activity: human PRP, control 3.24
Procedure: Compounds according to the invention were tested for their inhibition of plasminogen activator inhibitor (PAI). An established thrombus comprises aggregated platelets cohered by fibrin. The organism has a fibrinolyric system for maintaining normal physiological conditions. Endogenous plasminogen is activated to plasmin (fibrinolysin, that is a proteolytic enzyme decomposing fibrin) by means of a tissue plasminogen activator (t-PA). The platelets include the enzyme PAI-1 inhibiting the activation of plasminogen to plasmin, and thus also the decomposition of fibrin.
A general stimulation of the fibrinolytic system can cause serious hemostatic side effects (haemorrhages). A specific inhibition of PAI-1 induces an increased fibrinolysis in areas with many platelets, which is exactly the case in thrombi. As a result a thrombolytic effect is obtained.
Human PRP prepared by slight centrifugation as previously mentioned is used, but at a low temperature (4° C.). By incubation of PRP (1 ml in a plastic tube) during a slight shaking at 37° C. the PAI-1 activity is liberated, said PAI-1 activity being measured spectrophotometrically by means of a two-step procedure using commercial kits (Spectrolyse™/fibrin kit from BIOPOOL, Sweden).
The PAI-1 activity of the control PRP and PRP incubated with each of 6 compounds according to the invention and the reference substance sodium niroprusside (NNP) (50 μM of each for 60 minutes) appear from Table 6.

pre-contracted trachea = assay: Relaxation of pre-contracted isolated trachea; set-up: species or system guinea pig; details: Cavia porcellus; carbamylcholine 0.3 μM, Krebs buffer, 37° C.
Procedure: Compounds according to the invention were tested for their ability to relax a pre-contracted trachea. A contraction of the respiratory passages in combination with a swelling of the mucuos membrane therein presents a vital factor at asthmatic conditions. Relaxation or dilation of the contracted respiratory passages will improve the asthmatic condition.
An isolated trachea from a guinea pig is used. After preparation of a strip which has maintained the circular musculature, the organ is divided into two parts of equal size. The two tracheal strips are suspended in their respective organ bath and connected to a transducer recording the contraction and relaxation of the organ by means of a recorder. The two tracheal strips are continuously bathed in a Krebs buffer at 37° C., constantly bubbled with carbogen (95% O2 and 5% CO2). After an equilibration time of about 3 hours the organs are tested for their sensitivity (contractility) to carbamylcholin a bolus being added directly to the bath (0.3 μM). If the contraction is satisfactory, the organs are transferred to the Krebs buffer containing the same concentration of carbamylcholine. The organs are now constantly exposed to the carbamylcholine and slowly develop a permanent contraction ("asthma"). The test substances are in bolus form added directly to the organ bath. After maximum effect (relaxation) the substances are removed by washing out and the tracheal strip reverts to its permanent contraction state. […] An EC50 -value (that is the concentration relaxing the organ by 50% relative to the maximum relaxation) is calculated for each test substance by means of a linear regression analysis (log concentration (μM) as a constant ad abscissa and % relaxation as variable ad ordinate). Sodium nitroprusside (NNP) and SIN-1 are used as reference substances.

[1] = target: T1, soluble guanylate cyclase (Homo sapiens, UniProt Q02153); assay: Stimulation of guanylate cyclase from blood platelets (RIA); assay type: biochemical; details: 37° C.
T1 construct: The guanylate cyclase activity in the supernatant after incubation with and without the test substance; endogenous in cells; host or cells: human blood platelets, supernatant of homogenate
T1 sequence (Q02153 1-619): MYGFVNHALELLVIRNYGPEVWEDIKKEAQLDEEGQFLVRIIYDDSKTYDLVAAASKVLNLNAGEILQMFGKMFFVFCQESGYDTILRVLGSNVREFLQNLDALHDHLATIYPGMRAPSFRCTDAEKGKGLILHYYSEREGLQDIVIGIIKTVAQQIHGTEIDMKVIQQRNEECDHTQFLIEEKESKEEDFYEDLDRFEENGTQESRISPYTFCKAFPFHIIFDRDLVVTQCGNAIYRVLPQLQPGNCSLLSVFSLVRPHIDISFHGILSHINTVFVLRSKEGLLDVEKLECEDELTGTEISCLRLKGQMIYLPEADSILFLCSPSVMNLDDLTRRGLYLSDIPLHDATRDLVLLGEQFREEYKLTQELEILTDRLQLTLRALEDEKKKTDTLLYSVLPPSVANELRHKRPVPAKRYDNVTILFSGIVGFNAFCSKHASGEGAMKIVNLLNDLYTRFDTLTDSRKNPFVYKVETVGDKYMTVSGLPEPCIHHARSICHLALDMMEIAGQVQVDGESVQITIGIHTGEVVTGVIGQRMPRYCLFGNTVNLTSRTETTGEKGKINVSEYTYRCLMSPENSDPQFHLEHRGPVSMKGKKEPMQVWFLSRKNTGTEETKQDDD
T1 sequence (Q02108 1-690 partner): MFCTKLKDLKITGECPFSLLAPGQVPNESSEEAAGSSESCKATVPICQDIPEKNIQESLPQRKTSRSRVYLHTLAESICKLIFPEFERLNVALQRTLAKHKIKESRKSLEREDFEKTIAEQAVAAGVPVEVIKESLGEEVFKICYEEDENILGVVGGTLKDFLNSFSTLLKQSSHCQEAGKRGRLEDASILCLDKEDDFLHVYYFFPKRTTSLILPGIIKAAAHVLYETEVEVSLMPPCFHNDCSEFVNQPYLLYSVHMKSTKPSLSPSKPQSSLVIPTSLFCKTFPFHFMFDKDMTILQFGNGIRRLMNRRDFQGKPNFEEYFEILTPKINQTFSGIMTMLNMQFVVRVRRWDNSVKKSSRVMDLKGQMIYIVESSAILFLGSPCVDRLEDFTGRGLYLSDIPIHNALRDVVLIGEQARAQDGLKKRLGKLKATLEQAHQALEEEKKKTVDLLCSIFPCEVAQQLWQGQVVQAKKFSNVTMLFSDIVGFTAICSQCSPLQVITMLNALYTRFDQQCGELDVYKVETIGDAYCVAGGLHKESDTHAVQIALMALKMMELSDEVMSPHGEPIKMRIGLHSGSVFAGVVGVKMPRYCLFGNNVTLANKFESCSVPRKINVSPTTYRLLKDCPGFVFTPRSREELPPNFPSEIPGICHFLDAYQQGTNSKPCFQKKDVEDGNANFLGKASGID

blood platelets = assay: Inhibition of blood platelet aggregation (aggregometer, ADP); assay type: cell-based, human (healthy testees); details: Platelet, 0.05 h; human PRP, ADP 2 to 4 μM, 3 min incubation, 37° C.; read-out: IC50 (Inhibition of blood platelet aggregation)
Procedure: Compounds according to the invention were tested for their inhibition of clumping together (aggregation) of blood platelets (thrombocytes), which is the first phase of the formation of blood clots (thrombi). Such an inhibition may prevent the formation of blood clots and inhibit the development of new thrombi after a diagnosed thrombus.
Citrate stabilized ( 0.38% of sodium citrate, final concentration) venous blood from healthy testees is used, who have not used medicine for at least 8 days. Slight centrifugation (160×g for 10 minutes) results in PRP (blood plasma rich in platelets) which is pipetted. PPP (blood plasma poor in platelets) is obtained by an intense centrifugation (3000×g for 10 minutes) of the remaining blood. The light transmission is measured by the aggregometer (CHRONOLOG). PRP allows nearly no light transmitaaion, while PPP allows complete transmission of light. The PRP is placed in the aggregometer at 37° C. while being stirred by a magnet. Addition of a pro-aggregating substance causes the PRP to aggregate gradually and an increasing light transmission takes place at the same time. At complete aggregation a light transmission corresponding to PPP is obtained. Adnosine diphosphate (ADP) is used as pro-aggregating substance, said substance representing a basic biochemical mechanism for aggregation of blood platelets. The test substances are incubated for 3 minutes in PRP placed in the aggregometer at 37° C. during magnetic stirring. A predetermined positively aggregating dosage of adenosine diphosphate (ADP) (2 to 4 μM) is then added. […] A so-called IC50 -value (that is the concentration inhibiting the aggregation by 50% relative to the control aggregation) is calculated for each test substance by linear regression analysis (log concentration μM as constant ad abscissa and % inhibition as variable ad ordinate). The following known reference substances have been used: nitroglycerine (GTN), sodium nitroprusside (NNP) and SIN-1 (the active metabolite of molsidomine).

[2] = tested on: polymorph nuclear leukocytes (PMNs), c-GMP; assay: Stimulation of c-GMP content in PMNs; assay type: cell-based, human; details: 37° C., 10 minutes
Procedure: (§2) Compounds according to the invention were tested for their ability to increase the content of cyclic guanosine monophosphate (c-GMP), to inhibit the synthesis of the leukotriene B4 (LTB4), and to inhibit the chemotactical movement of polymorph nuclear leukocytes (PMN). The polymorph nuclear leukocytes play a vital part in the cellular part of the inflammation process. At diseases, such as asthma, the mucuos membrane of the respiratory passages is swollen as a result of an inflammation with a significant infiltration of polymorph nuclear leukocytes (PMN's) in particular. Particularly effective substances for the treatment of asthma are such which in addition to relaxing the musculature in the respiratory passages also have an anti-inflammatory effect on the cellular phase of the inflammatory process, that is inhibiting the leukocyte function.
(§3) Isolated human PMNs are incubated at 37° C. for 10 minutes, whereafter the content of cyclic guanosine monophosphate (c-GMP) is measured. Further, the synthesis of the LTB4 is determined after stimulation with Ca-ionophore (A23187) and the chemotaxis (controlled movement) towards FMLP (a substance attracting the polymorph nuclear leukocytes, PMNs) is determined.
Three compounds according to the invention and the reference substance SIN-1 were tested for their ability to stimulate the content of cyclic guanosine monophosphate (c-GMP).

male rats = details: rat, in vivo, po, 20 mg/kg
Procedure: as §1
At this test the substances were administered perorally in a dose of 20 mg per kg. as solutions or suspensions once a day for 5 days to groups of 5 animals. Clinical observations were made every day and the above hematological parameters were measured on the third day of the test.

[3] = tested on: polymorph nuclear leukocytes (PMNs); assay: Inhibition of PMN chemotaxis towards FMLP; assay type: cell-based, human
Procedure: as §2, §3

[4] = tested on: polymorph nuclear leukocytes (PMNs), LTB4 synthesis; assay: Inhibition of leukotriene B4 synthesis in PMNs after Ca-ionophore (A23187); assay type: cell-based, human
Procedure: as §2, §3

| EC50 (pre-contracted trachea) [µM] | Guanylate cyclase activity ([1]; 0.01 μM) | Guanylate cyclase activity ([1]; 10 μm (so in the source)) | IC50 (blood platelets) [µM] | SMILES | further results |
| --- | --- | --- | --- | --- | --- |
|  |  |  |  | [NH-]c1n[n+](-c2ccc(C(F)(F)F)cc2)no1 [Example 4] | LD50 (LD50 test, intravenous; female mice): 81 mg/kg; LD50 (LD50 test, intravenous; male mice): 89 mg/kg |
| 4.9 |  |  |  | Cc1cccc(C)c1-[n+]1noc([NH-])n1 [Example 12] | % Inhibition of PAI-1 activity (PAI-1): 37%; PAI-1 activity (PAI-1): 2.04 U/10^8 platelets |
| 1.1 | 7642 pmole c-GMP/mg prot. × 15 minutes | 48126 pmole c-GMP/mg prot. × 15 minutes | 0.2 | Cc1cc(Cl)ccc1-[n+]1noc([NH-])n1 [Example 13, 3-(4-chloro-2-methylphenyl)-1,2,3,4-oxatriazole-5-imine hydrochloride] |  |
| 5.2 |  |  |  | COc1ccc(CCNC(=O)[N-]c2n[n+](-c3cccc(Cl)c3C)no2)cc1OC [Example 47a, 3-(3-chloro-2-methylphenyl)-1,2,3,4-oxatriazole-5-(N-3,4-dimethoxyphenylethylcarbamoyl)imine] |  |
| 0.7 |  |  |  | COc1ccc(C(=O)[N-]c2n[n+](-c3cccc(Cl)c3C)no2)cc1 [Example 53] |  |
| 0.6 | 8139 pmole c-GMP/mg prot. × 15 minutes | 18693 pmole c-GMP/mg prot. × 15 minutes |  | Cc1c(Cl)cccc1-[n+]1noc([N-]C(=O)c2cccnc2)n1 [Example 54] |  |
| 18.3 | 0 pmole c-GMP/mg prot. × 15 minutes | 59733 pmole c-GMP/mg prot. × 15 minutes | 3.9 | [NH-]c1c[n+](N2CCOCC2)no1 [SIN-1, reference compound] | c-GMP in PMNs ([2]; 1 μM): 32 fmole/10^6 cells; c-GMP in PMNs ([2]; 10 μM): 220 fmole/10^6 cells; c-GMP in PMNs ([2]; 100 μM): 473 fmole/10^6 cells; Inhibition of PMN chemotaxis (in words) [3]: also able to inhibit these leukocyte functions, but only when used in higher concentrations; Inhibition of leukotriene B4 synthesis (in words) [4]: also able to inhibit these leukocyte functions, but only when used in higher concentrations |

| SMILES | EC50 (pre-contracted trachea) [µM] | Guanylate cyclase activity ([1]; 0.01 μM) | Guanylate cyclase activity ([1]; 10 μm (so in the source)) | IC50 (blood platelets) [µM] | further results |
| --- | --- | --- | --- | --- | --- |
| Cc1c(Cl)cccc1-[n+]1noc([NH-])n1 [Example 29, 3-(3-chloro-2-methylphenyl)-1,2,3,4-oxatriazole-5-imine] | 0.8 | 4407 pmole c-GMP/mg prot. × 15 minutes | 61900 pmole c-GMP/mg prot. × 15 minutes |  | c-GMP in PMNs ([2]; 1 μM): 209 fmole/10^6 cells; c-GMP in PMNs ([2]; 10 μM): 859 fmole/10^6 cells; c-GMP in PMNs ([2]; 100 μM): 1044 fmole/10^6 cells; % Inhibition of PAI-1 activity (PAI-1): 39%; PAI-1 activity (PAI-1): 1.97 U/10^8 platelets |
| CC(=O)Oc1ccccc1C(=O)[N-]c1n[n+](-c2cccc(Cl)c2C)no1 [Example 38] | 3.2 | 1024 pmole c-GMP/mg prot. × 15 minutes | 82100 pmole c-GMP/mg prot. × 15 minutes | 0.2 | Clinical observations (male rats): N.R.; Hematological parameters (male rats): N.R.; Side effects (in words) (male rats): no side effects |
